Results as given in a compilation of properties of binary mixtures (doi:10.1021/je400097b).

Assay: xn = mol fraction of the nth substance listed
Conditions: 101 kPa

O + CC[NH+](C)CC.O=S(=O)([O-])C(F)(F)F
Conditions	viscosity [mPa·s]
293.15 K, x1 = 1	1.2

CC[NH+](C)CC.O=S(=O)([O-])C(F)(F)F + O
viscosity [mPa·s]
Conditions	x2 = 0.037	x2 = 0.434	x2 = 0.586	x2 = 0.759	x2 = 0.844	x2 = 0.925	x2 = 0.972
293.15 K	53.3	22.3	14.5	–	4.99	2.86	1.69
313.15 K	–	12.1	7.98	4.38	2.89	1.75	1.2
333.15 K	14.6	–	4.97	–	–	1.28	1.01
353.15 K	9.18	–	3.38	–	1.45	1.08	0.91
